Measurements reported in US20090099167A1, “Organic compounds” (Novartis Institutes for Biomedical Research, priority 2004, published 2009).

Target: T1, human VEGF-R2 receptor (KDR) (Homo sapiens, UniProt P35968)
T1 construct: expressed in transfected cells; host or cells: CHO cells
Assay: VEGF-induced KDR autophosphorylation in transfected CHO cells, sandwich ELISA
Type: cell-based
Details: Table 5; read-out: KDR, IC50 class
Method: The compounds to be tested are then diluted in culture medium (without FCS, with 0.1% bovine serum albumin) and added to the cells. (Controls comprise medium without test compounds). After two hours' incubation at 37° C., recombinant VEGF is added; the final VEGF concentration is 20 ng/ml). After a further five minutes incubation at 37° C., the cells are washed twice with ice-cold PBS (phosphate-buffered saline) and immediately lysed in 100 μl lysis buffer per well. The lysates are then centrifuged to remove the cell nuclei, and the protein concentrations of the supernatants are determined using a commercial protein assay (BIORAD). The lysates can then either be immediately used or, if necessary, stored at −20° C. A sandwich ELISA is carried out to measure the VEGF-R2 phosphorylation: a monoclonal antibody to VEGF-R2 (for example Mab 1495.12.14; ProQinase, Freiburg, Germany) is immobilized on black ELISA plates (OptiPlate™ HTRF-96 from Packard). The plates are then washed and the remaining free protein-binding sites are saturated with 3% TopBlock® (Juro, Cat. # TB232010) in phosphate buffered saline with Tween 20® (polyoxyethylen(20)-sorbitane monolaurate, ICI/Uniquema) (PBST). The cell lysates (20 μg protein per well) are then incubated in these plates overnight at 4° C. together with an antiphosphotyrosine antibody coupled with alkaline phosphatase (PY20:AP from Zymed). […] The luminescence is measured in a Packard Top Count Microplate Scintillation Counter. The difference between the signal of the positive control (stimulated with VEGF) and that of the negative control (not stimulated with VEGF) corresponds to VEGF-induced VEGF-R2 phosphorylation (=100%). The activity of the tested substances is calculated as percent inhibition of VEGF-induced VEGF-R2 phosphorylation, wherein the concentration of substance that induces half the maximum inhibition is defined as the IC50 (inhibitory dose for 50% inhibition). […] Flt3 kinase inhibition is determined as follows: The baculovirus donor vector pFbacG01 (GIBCO) is used to generate a recombinant baculovirus expressing the amino acid region amino acids 563-993 of the cytoplasmic kinase domain of human Flt-3. The coding sequence for the cytoplasmic domain of Flt-3 is amplified by PCR from human c-DNA libraries (Clontech). The amplified DNA fragments and the pFbacG01 vector are made compatible for ligation by digestion with BamH1 and HindIII. Ligation of these DNA fragments results in the baculovirus donor plasmid Flt-3(1.1). The production of the viruses, the expression of proteins in Sf9 cells and the purification of the GST-fused proteins are performed as follows: Production of virus: Transfer vector (pFbacG01-Flt-3) containing the Flt-3 kinase domain is transfected into the DH10Bac cell line (GIBCO) and the transfected cells are plated on selective agar plates. Colonies without insertion of the fusion sequence into the viral genome (carried by the bacteria) are blue. Single white colonies are picked and viral DNA (bacmid) is isolated from the bacteria by standard plasmid purification procedures. Sf9 or Sf21 cells (American Type Culture Collection) are then transfected in flasks with the viral DNA using Cellfectin reagent. Determination of small scale protein expression in Sf9 cells: Virus containing media is collected from the transfected cell culture and used for infection to increase its titre. Virus containing media obtained after two rounds of infection is used for large-scale protein expression. For large-scale protein expression 100 cm^2 round tissue culture plates are seeded with 5×10^7 cells/plate and infected with 1 mL of virus-containing media (approx. 5 MOIs). After 3 days the cells are scraped off the plate and centrifuged at 500 rpm for 5 min. Cell pellets from 10-20, 100 cm^2 plates, are resuspended in 50 mL of ice-cold lysis buffer (25 mMTris-HCl, pH 7.5, 2 mM EDTA, 1% NP-40, 1 mM DTT, 1 mM PMSF). The cells are stirred on ice for 15 min and then centrifuged at 5000 rpms for 20 min. […]

T1 sequence (P35968 20-1356): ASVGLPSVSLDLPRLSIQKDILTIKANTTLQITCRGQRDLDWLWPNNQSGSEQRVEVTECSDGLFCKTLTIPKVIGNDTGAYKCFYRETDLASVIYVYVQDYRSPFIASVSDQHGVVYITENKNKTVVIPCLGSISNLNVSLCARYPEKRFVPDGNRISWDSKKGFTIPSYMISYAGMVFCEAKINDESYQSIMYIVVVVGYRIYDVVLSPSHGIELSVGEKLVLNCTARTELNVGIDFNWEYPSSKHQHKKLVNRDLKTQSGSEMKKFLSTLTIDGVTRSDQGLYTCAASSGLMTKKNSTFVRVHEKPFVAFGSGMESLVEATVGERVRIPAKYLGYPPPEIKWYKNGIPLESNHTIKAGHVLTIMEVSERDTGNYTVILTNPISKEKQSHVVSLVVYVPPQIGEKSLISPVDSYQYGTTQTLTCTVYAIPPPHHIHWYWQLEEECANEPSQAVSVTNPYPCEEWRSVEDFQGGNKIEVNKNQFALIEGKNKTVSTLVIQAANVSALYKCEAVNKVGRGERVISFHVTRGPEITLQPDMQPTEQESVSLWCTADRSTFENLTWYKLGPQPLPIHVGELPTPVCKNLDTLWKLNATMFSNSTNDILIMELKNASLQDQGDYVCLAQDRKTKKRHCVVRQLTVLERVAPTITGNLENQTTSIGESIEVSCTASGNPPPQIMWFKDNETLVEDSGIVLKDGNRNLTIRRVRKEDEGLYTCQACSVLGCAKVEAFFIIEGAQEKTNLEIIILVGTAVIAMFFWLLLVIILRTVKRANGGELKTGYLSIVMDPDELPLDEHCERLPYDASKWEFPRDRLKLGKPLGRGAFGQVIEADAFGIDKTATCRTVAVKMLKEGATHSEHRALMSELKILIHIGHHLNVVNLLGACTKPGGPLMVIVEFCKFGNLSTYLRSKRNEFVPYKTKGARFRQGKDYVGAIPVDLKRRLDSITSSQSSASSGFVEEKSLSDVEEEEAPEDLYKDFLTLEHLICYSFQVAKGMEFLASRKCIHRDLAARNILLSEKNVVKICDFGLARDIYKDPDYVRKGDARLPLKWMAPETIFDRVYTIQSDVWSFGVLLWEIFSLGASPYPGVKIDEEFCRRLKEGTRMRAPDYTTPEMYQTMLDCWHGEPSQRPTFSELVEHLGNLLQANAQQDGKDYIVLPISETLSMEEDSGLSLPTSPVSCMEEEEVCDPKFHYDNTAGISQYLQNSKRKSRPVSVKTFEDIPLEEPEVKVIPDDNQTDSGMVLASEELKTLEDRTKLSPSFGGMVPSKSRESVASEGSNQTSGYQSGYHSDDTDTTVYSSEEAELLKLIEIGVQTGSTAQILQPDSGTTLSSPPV

Row | Compound | IC50 [µM]
1 | Cc1nc2c(-c3cccc(N4CCN(CCO)CC4)c3)cnn2c(N)c1-c1ccc(F)c(Cl)c1 [Example 100, 2-(4-{3-[7-Amino-6-(3-chloro-4-fluoro-phenyl)-5-methyl-pyrazolo[1,5-a]pyrimidin-3-yl]-phenyl}-piperazin-1-yl)-ethanol] | 1 to 10
2 | Cc1nc2c(-c3cccc(N4CCN(CCO)CC4)c3)cnn2c(N)c1-c1ccc(F)c(F)c1 [Example 101, 2-(4-{3-[7-Amino-6-(3,4-difluoro-phenyl)-5-methyl-pyrazolo[1,5-a]pyrimidin-3-yl]-phenyl}-piperazin-1-yl)-ethanol] | 1 to 10
3 | Cc1nc2c(-c3cccc(N4CC[N+](C)([O-])CC4)c3)cnn2c(N)c1-c1ccc(F)cc1 [Example 106, 6-(4-Fluoro-phenyl)-5-methyl-3-[3-(4-methyl-4-oxy-piperazin-1-yl)-phenyl]-pyrazolo[1,5-a]pyrimidin-7-ylamine] | > 10
4 | Cc1nc2c(-c3cccc([N+]4([O-])CC[N+](C)([O-])CC4)c3)cnn2c(N)c1-c1ccc(F)cc1 (stereo not drawn) [Example 107, 6-(4-Fluoro-phenyl)-5-methyl-3-[3-(4-methyl-1,4-dioxy-piperazin-1-yl)-phenyl]-pyrazolo[1,5-a]pyrimidin-7-ylamine] | > 10

The next lines start with the values.

Row | IC50 [µM] | Compound
5 | > 10 | Cc1nc2c(-c3cccc(N4CCC(N5CCCC5)CC4)c3)cnn2c(N)c1-c1cccc(Cl)c1 [Example 102, 6-(3-Chloro-phenyl)-5-methyl-3-[3-(4-pyrrolidin-1-yl-piperidin-1-yl)-phenyl]-pyrazolo[1,5-a]pyrimidin-7-ylamine]
6 | > 10 | Cc1nc2c(-c3cccc(N4CCC(N5CCCC5)CC4)c3)cnn2c(N)c1-c1ccc(F)cc1 [Example 103, 6-(4-Fluoro-phenyl)-5-methyl-3-[3-(4-pyrrolidin-1-yl-piperidin-1-yl)-phenyl]-pyrazolo[1,5-a]pyrimidin-7-ylamine]
